# Molecular target: AtlE (Staphylococcus aureus, UniProt A0A0H3JT72)
# Assay: SPR binding affinity to AtlE (steady state 1:1 model)
# Experimental: SPR experiments were performed using a Biacore T100 (GE Healthcare) equipped with a Series S sensor chip CM5 (GE Healthcare). PBS buffer (67 mM Na2HPO4, 12.5 mM KH2PO4, 70 mM NaCl, 0,05% P20, pH 7.4) was used for immobilisation of the protein. AtlE was produced as previously described[1] and attached to the surface of the chip by amine coupling. The surface of flow cells 1 and 2 was initially activated with a 10-min pulse of a 1:1 mixture of 0.4 M 1-ethyl-3–(3-dimethylaminopropyl)-carbodiimide hydrochloride and 0.1 M N-hydroxysuccinimide, according to manufacturer recommendations. AtlE was diluted into 10 mM sodium acetate buffer, pH 5.8, to a final concentration of 100 µg/mL, and injected twice for 180 s over the second flow cell. Both flow cells were blocked with a 7-min pulse of 1.0 M ethanolamine. The final immobilisation level was about 4100 RU. Screening was run at 25 °C using PBS (67 mM Na2HPO4, 12.5 mM KH2PO4 pH 7.4, 70 mM NaCl, 0.05% P20) supplemented with 1% or 5% DMSO (Merck) as the running buffer. Selected compounds from the virtual screening studies were tested at two different concentrations: 40 and 400 µM. Each compound was injected for 1 min at a flow-rate of 30 µL/min, and the dissociation was monitored for 30 s. […] KD values were determined by fitting of the data to a 1:1 steady state binding model.
# Chain of AtlE (A0A0H3JT72 entry or part of it): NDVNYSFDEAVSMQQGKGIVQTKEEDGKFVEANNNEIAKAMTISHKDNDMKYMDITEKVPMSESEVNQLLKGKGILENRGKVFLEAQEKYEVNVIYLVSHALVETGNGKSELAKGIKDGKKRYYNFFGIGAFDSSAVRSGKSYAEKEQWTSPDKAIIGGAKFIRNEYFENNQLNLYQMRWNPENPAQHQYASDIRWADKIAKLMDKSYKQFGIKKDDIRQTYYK
structure (smiles),measurement,value
O=C(Nc1cccc(Cl)c1)NC1CCN(c2cccc(C(=O)N3CCc4ccccc4C3)c2)CC1 [Compound 10],Kd,1900 nM
